Patent US20080318943A1, “Compounds and Uses Thereof - 848” (ASTRAZENECA AB, priority 2007, published 2008)

Key:
[1] = biological target: T1, GABAA2 receptors (α2, β3, γ2 receptor subunits transfected into Sf9 cells) (Homo sapiens, UniProt P18507+P47869); assay: GABAA2 Binding Method ([3H]-Flunitrazepam displacement); settings: [3H]-Flunitrazepam ~2 nM, α2β3γ2 Sf9 membranes, 1 hr at 4° C.
T1 construct: host or cells: Sf9 cells (membranes)
Procedure, shortened: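 Membranes from Sf9 cells expressing α2β3γ2 GABAA receptors incubated with ~2 nM (final) [3H]-flunitrazepam and test compound 1 h at 4 °C, then filtered on GF/B plates with cold-buffer washes. Flumazenil-defined controls; percent of control, IC50 and Ki calculated.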

[2] = biological target: T2, GABAA receptor α1β2γ2 (Homo sapiens, UniProt P14867+P18507); assay: Two-electrode voltage-clamp potentiation of GABA EC10 current in Xenopus oocytes, GABAA1; type: cell-based; settings: percentage potentiation of GABA EC10 current divided by that of diazepam
T2 construct: expressed in transfected cells; host or cells: Xenopus laevis oocytes injected with cRNA
Procedure, shortened: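 Human GABAA receptors expressed in Xenopus oocytes by cRNA injection (α:β:γ molar ratio ~1:1:10 for α1β2γ2, 1:1:1 for α2β3γ2), recorded 2-10 days later by two-electrode voltage clamp at −60 mV in ND-96, pH 7.5. Modulator preapplied 30 s before GABA at per-oocyte EC10. Peak-current percent potentiation over GABA alone, normalised to diazepam.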

T1 sequence (P47869 29-451): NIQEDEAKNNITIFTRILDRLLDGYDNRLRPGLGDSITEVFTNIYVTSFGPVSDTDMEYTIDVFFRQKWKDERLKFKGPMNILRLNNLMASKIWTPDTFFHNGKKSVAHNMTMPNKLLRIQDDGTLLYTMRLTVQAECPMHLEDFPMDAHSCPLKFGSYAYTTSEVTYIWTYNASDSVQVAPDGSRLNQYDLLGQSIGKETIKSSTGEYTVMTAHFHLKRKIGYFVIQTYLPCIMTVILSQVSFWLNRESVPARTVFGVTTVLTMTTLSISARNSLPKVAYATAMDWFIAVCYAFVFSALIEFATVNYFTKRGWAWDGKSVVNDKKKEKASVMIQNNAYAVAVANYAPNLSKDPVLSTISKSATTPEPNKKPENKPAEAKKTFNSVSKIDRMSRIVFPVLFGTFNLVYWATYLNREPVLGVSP
T1 sequence (P28472 26-473 partner): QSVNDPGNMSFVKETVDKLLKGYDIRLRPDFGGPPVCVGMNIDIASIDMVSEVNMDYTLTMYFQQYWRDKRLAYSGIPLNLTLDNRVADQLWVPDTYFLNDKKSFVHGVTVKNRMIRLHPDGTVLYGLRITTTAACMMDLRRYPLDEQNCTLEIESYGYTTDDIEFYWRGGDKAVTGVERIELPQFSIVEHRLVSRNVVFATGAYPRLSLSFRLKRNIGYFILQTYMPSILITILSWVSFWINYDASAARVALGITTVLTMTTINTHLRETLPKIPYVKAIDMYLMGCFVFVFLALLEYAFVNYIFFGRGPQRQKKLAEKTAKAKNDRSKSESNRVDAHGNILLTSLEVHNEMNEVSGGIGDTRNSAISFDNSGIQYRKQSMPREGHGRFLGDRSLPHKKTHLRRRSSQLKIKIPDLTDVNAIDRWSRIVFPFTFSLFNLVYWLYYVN
T1 sequence (P18507 40-475): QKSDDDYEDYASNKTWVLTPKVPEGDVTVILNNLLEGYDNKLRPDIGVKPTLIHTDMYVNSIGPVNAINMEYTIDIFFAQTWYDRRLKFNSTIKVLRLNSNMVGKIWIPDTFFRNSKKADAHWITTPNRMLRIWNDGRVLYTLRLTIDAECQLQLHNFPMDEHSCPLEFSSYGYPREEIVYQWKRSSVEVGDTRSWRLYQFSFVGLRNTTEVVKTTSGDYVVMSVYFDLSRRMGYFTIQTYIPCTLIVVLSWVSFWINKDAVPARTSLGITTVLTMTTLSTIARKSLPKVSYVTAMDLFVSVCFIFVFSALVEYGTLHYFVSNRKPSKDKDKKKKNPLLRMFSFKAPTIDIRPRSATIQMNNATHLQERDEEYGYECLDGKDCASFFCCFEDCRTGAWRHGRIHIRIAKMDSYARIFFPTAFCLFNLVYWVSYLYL
T2 sequence (P14867 28-456): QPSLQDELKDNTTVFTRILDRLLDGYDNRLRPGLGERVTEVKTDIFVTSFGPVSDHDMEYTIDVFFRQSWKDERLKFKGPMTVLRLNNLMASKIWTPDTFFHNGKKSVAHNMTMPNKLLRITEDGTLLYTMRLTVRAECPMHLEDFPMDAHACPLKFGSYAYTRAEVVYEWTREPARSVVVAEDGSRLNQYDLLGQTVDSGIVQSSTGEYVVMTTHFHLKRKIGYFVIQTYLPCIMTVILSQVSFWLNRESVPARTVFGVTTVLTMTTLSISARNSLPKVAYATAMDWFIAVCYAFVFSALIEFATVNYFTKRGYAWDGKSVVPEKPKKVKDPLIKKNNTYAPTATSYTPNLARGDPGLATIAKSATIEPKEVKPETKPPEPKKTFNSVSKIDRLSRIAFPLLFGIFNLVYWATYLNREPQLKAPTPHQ
T2 sequence (P47870 25-512 partner limits assumed): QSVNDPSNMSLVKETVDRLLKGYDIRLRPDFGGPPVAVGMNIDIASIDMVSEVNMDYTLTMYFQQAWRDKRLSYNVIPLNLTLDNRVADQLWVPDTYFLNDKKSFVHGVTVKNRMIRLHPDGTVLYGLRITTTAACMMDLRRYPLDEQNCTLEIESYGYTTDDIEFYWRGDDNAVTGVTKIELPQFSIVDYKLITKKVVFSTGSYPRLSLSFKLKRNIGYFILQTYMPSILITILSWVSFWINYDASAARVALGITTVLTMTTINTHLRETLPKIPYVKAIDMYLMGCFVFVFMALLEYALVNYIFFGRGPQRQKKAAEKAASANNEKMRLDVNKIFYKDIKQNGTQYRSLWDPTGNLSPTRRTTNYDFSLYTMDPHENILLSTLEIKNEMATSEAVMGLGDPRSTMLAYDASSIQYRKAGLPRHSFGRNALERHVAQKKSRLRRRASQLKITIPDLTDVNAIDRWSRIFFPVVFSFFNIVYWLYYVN
T2 sequence (P18507 40-475): as the sequence (P18507 40-475) above

Row | Ki [1] | Relative Potentiation for GABAA1 [2] | Structure (SMILES)
1 | 0.00808 µM | 0.6 | CCCN1Cc2nc3c(-c4cc(F)ncc4OC)cccc3c(N)c2C1=O [9-amino-5-(2-fluoro-5-methoxypyridin-4-yl)-2-propyl-2,3-dihydro-1H-pyrrolo[3,4-b]quinolin-1-one]
2 | 0.00755 µM | 0.33 | CCCN1Cc2nc3c(-c4cc(C)cnc4F)cccc3c(N)c2C1=O [9-amino-5-(2-fluoro-5-methylpyridin-3-yl)-2-propyl-2,3-dihydro-1H-pyrrolo[3,4-b]quinolin-1-one]
3 | 0.024 µM | 1.1 | CCCN1Cc2nc3c(-c4ccc(C)nc4OC)cccc3c(N)c2C1=O [9-amino-5-(2-methoxy-6-methylpyridin-3-yl)-2-propyl-2,3-dihydro-1H-pyrrolo[3,4-b]quinolin-1-one]
4 | 0.0123 µM | 1.1 | CCCN1Cc2nc3c(-c4ccc(OC)c(OC)c4)cccc3c(N)c2C1=O [9-amino-5-(3,4-dimethoxyphenyl)-2-propyl-2,3-dihydro-1H-pyrrolo[3,4-b]quinolin-1-one]
5 | 0.0467 µM | 0.6 | CCCN1Cc2nc3c(-c4cc(OC)cc(OC)c4)cccc3c(N)c2C1=O [9-amino-5-(3,5-dimethoxyphenyl)-2-propyl-2,3-dihydro-1H-pyrrolo[3,4-b]quinolin-1-one]
6 | 0.0106 µM | 0.53 | CCCN1Cc2nc3c(-c4cc(Br)cnc4OC)cccc3c(N)c2C1=O [9-amino-5-(5-bromo-2-methoxypyridin-3-yl)-2-propyl-2,3-dihydro-1H-pyrrolo[3,4-b]quinolin-1-one]
7 | 0.0215 µM | 0.49 | CCCN1Cc2nc3c(-c4cc(Cl)cnc4OC)cccc3c(N)c2C1=O [9-amino-5-(5-chloro-2-methoxypyridin-3-yl)-2-propyl-2,3-dihydro-1H-pyrrolo[3,4-b]quinolin-1-one]
8 | 0.0063 µM | 0.29 | CCCN1Cc2nc3c(-c4cc(F)ccc4C)cccc3c(N)c2C1=O [9-amino-5-(5-fluoro-2-methylphenyl)-2-propyl-2,3-dihydro-1H-pyrrolo[3,4-b]quinolin-1-one]
9 | 0.063 µM | 0.23 | CCCN1Cc2nc3c(-c4cncc(OC)c4)cccc3c(N)c2C1=O [9-amino-5-(5-methoxypyridin-3-yl)-2-propyl-2,3-dihydro-1H-pyrrolo[3,4-b]quinolin-1-one]
10 | 0.0164 µM | 0.29 | CCCN1Cc2nc3c(-c4ccc(OC)nc4C)cccc3c(N)c2C1=O [9-amino-5-(6-methoxy-2-methylpyridin-3-yl)-2-propyl-2,3-dihydro-1H-pyrrolo[3,4-b]quinolin-1-one]
11 | 0.0365 µM | 0.32 | CCCN1Cc2nc3c(-c4cnc(OC)c(C)c4)cccc3c(N)c2C1=O [9-amino-5-(6-methoxy-5-methylpyridin-3-yl)-2-propyl-2,3-dihydro-1H-pyrrolo[3,4-b]quinolin-1-one]

Further lines, the molecule ahead of its results:

Row | Structure (SMILES) | Ki [1] | Relative Potentiation for GABAA1 [2]
12 | CCCN1Cc2nc3c(-c4cc(C)ccc4F)cccc3c(N)c2C1=O [9-amino-5-(2-fluoro-5-methylphenyl)-2-propyl-2,3-dihydro-1H-pyrrolo[3,4-b]quinolin-1-one] | 0.00677 µM | 0.27
13 | COc1ccc([C@@H](C)N2Cc3nc4c(-c5c(F)cccc5OC)cccc4c(N)c3C2=O)cc1 [9-amino-5-(2-fluoro-6-methoxyphenyl)-2-((R)-1-(4-methoxyphenyl)ethyl)-2,3-dihydro-1H-pyrrolo[3,4-b]quinolin-1-one] | 0.0209 µM | −0.008
14 | COc1ccc(CN2Cc3nc4c(-c5cc(F)cc(F)c5)cccc4c(N)c3C2=O)cc1OC [9-amino-5-(3,5-difluorophenyl)-2-(3,4-dimethoxybenzyl)-2,3-dihydro-1H-pyrrolo[3,4-b]quinolin-1-one] | 0.0153 µM | 0.24
15 | CCN1Cc2nc3c(-c4cc(C)cc(C)c4)cccc3c(N)c2C1=O [9-amino-5-(3,5-dimethylphenyl)-2-ethyl-2,3-dihydro-1H-pyrrolo[3,4-b]quinolin-1-one] | 0.0142 µM | 0.34
16 | CCCN1Cc2nc3c(-c4cccc(N(C)C)c4)cccc3c(N)c2C1=O [9-amino-5-(3-(dimethylamino)phenyl)-2-propyl-2,3-dihydro-1H-pyrrolo[3,4-b]quinolin-1-one] | 0.0374 µM | 0.27
17 | COc1ccc(CN2Cc3nc4c(-c5ccc(F)cc5OC)cccc4c(N)c3C2=O)cc1 [9-amino-5-(4-fluoro-2-methoxyphenyl)-2-(4-methoxybenzyl)-2,3-dihydro-1H-pyrrolo[3,4-b]quinolin-1-one] | 0.0312 µM | 0.22
18 | CCCN1Cc2nc3c(-c4ccc(OC)cc4C(F)(F)F)cccc3c(N)c2C1=O [9-amino-5-(4-methoxy-2-(trifluoromethyl)phenyl)-2-propyl-2,3-dihydro-1H-pyrrolo[3,4-b]quinolin-1-one] | 0.0104 µM | 0.25
19 | COc1ccc(Cl)cc1-c1cccc2c(N)c3c(nc12)CN(C1CC1)C3=O [9-amino-5-(5-chloro-2-methoxyphenyl)-2-cyclopropyl-2,3-dihydro-1H-pyrrolo[3,4-b]quinolin-1-one] | 0.00895 µM | 0.19
20 | COc1ccc(CN2Cc3nc4c(-c5cc(F)ccc5OC)cccc4c(N)c3C2=O)cc1 [9-amino-5-(5-fluoro-2-methoxyphenyl)-2-(4-methoxybenzyl)-2,3-dihydro-1H-pyrrolo[3,4-b]quinolin-1-one] | 0.0463 µM | 0.39
21 | COc1ccc(CN2Cc3nc4c(-c5cc(F)ccc5C)cccc4c(N)c3C2=O)cc1 [9-amino-5-(5-fluoro-2-methylphenyl)-2-(4-methoxybenzyl)-2,3-dihydro-1H-pyrrolo[3,4-b]quinolin-1-one] | 0.0258 µM | 0.22
22 | Cc1nc(Cl)ccc1-c1cccc2c(N)c3c(nc12)CN(C1CC1)C3=O [9-amino-5-(6-chloro-2-methylpyridin-3-yl)-2-cyclopropyl-2,3-dihydro-1H-pyrrolo[3,4-b]quinolin-1-one] | 0.028 µM | 0.16
23 | CCCN1Cc2nc3c(-c4ccc(Cl)nc4C)cccc3c(N)c2C1=O [9-amino-5-(6-chloro-2-methylpyridin-3-yl)-2-propyl-2,3-dihydro-1H-pyrrolo[3,4-b]quinolin-1-one] | 0.0231 µM | 1.1
24 | CCCN1Cc2nc3c(-c4ccoc4)cccc3c(N)c2C1=O [9-amino-5-(furan-3-yl)-2-propyl-2,3-dihydro-1H-pyrrolo[3,4-b]quinolin-1-one] | 0.0382 µM | 0.13
25 | CCCN1Cc2nc3c(-c4ccccc4)cccc3c(N)c2C1=O [9-amino-5-phenyl-2-propyl-2,3-dihydro-1H-pyrrolo[3,4-b]quinolin-1-one] | 0.0438 µM | 0.51
